Results: patent US12568972B2, “Pyridazinol compounds and derivatives, preparation methods, herbicidal compositions and applications thereof” (Qingdao Kingagroot Chemical Compound Co., Ltd., priority 2018, dated 2026)

These molecules were tested on Chenopodiaceae (assay: Post-emergence test, weed control effect). Details: Dose 3000 g/ha, after 3 weeks.
Format: in vivo
Outline: (§1)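 Weeds grown from seed in soil-filled pots in a greenhouse were sprayed at the 2-3 leaf stage, 2-3 weeks after sowing, with compound in acetone/Tween-80/water plus 80% vegetable oil methyl ester synergist at 1500 g/ha. Fresh-weight inhibition was scored on a 0-10 scale after 3 weeks.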
With `O=S(=O)(Oc1cc(C(F)(F)F)nnc1-c1ccc(F)cc1)c1ccc(F)cc1` [Compound 1-134] the “weed control effect, Chenopodiaceae (activity level)” value was 10.
`CCc1cccc(-c2nnc(C(F)(F)F)cc2OS(=O)(=O)c2nccs2)c1` [Compound 1-145] was tested, and the “weed control effect, Chenopodiaceae (activity level)” value was 10.

Same assay, conditions: dose 1000 g/ha, after 3 weeks
`Cc1ccc(-c2nnc(C(F)(F)F)cc2O)cc1F` [Compound 56] was tested, and the “weed control effect (activity level), Chenopodiaceae” value was 10.
For `COc1ccc(-c2nnc(C(F)(F)F)cc2O)cc1` [Compound 93], the “weed control effect (activity level), Chenopodiaceae” value was 10.
`Cc1ccc(Cl)c(-c2nnc(C(F)(F)F)cc2O)c1F` [Compound 82] was tested, and the “weed control effect (activity level), Chenopodiaceae” value was 10.
In the case of `Oc1cc(C(F)(F)F)nnc1-c1c(F)ccc(F)c1F` [Compound 54], the “weed control effect (activity level), Chenopodiaceae” value is reported as 10.
In the case of `Oc1cc(C(F)(F)F)nnc1-c1ccc(Cl)c(Cl)c1` [Compound 38], the “weed control effect (activity level), Chenopodiaceae” value is reported as 10.
`Oc1cc(C(F)(F)F)nnc1-c1c(F)cccc1F` [Compound 36] was tested, and the “weed control effect (activity level), Chenopodiaceae” value was 10.
For `O=Cc1ccc(-c2nnc(C(F)(F)F)cc2O)c(F)c1` [Compound 64], the “weed control effect (activity level), Chenopodiaceae” value was 10.
In the case of `CN(C)c1ccc(-c2nnc(C(F)(F)F)cc2O)cc1` [Compound 97], the “weed control effect (activity level), Chenopodiaceae” value is reported as 10.
With `COc1ccc(Cl)c(-c2nnc(C(F)(F)F)cc2O)c1` [Compound 70] the “weed control effect (activity level), Chenopodiaceae” value was 10.
`O=[N+]([O-])c1ccc(Cl)c(-c2nnc(C(F)(F)F)cc2O)c1` [Compound 69] was tested, and the “weed control effect (activity level), Chenopodiaceae” value was 10.
In the case of `Oc1cc(C(F)(F)F)nnc1-c1cc(Cl)ccc1Cl` [Compound 37], the “weed control effect (activity level), Chenopodiaceae” value is reported as 10.

Same assay, conditions: dose 2000 g/ha, after 3 weeks
For `Oc1cc(C(F)(F)F)nnc1-c1ccc2cc(Cl)ccc2c1` [Compound 371], the “weed control effect (activity level), Chenopodiaceae” value was 10.
With `Cc1ccc(-c2nnc(C(F)(F)F)cc2O)cc1` [Compound 4] the “weed control effect (activity level), Chenopodiaceae” value was 8 (Level 8: above 80% growth inhibition rate).
For `CCc1cc(C(F)(F)F)cc(-c2nnc(C(F)(F)F)cc2O)c1C#N` [Compound 163], the “weed control effect (activity level), Chenopodiaceae” value was 10.
For `COc1ccc(-c2nnc(C(F)(F)F)cc2O)cn1` [Compound 226], the “weed control effect (activity level), Chenopodiaceae” value was 10.
For `Cc1cc(-c2nnc(C(F)(F)F)cc2O)cnc1Cl` [Compound 225], the “weed control effect (activity level), Chenopodiaceae” value was 10.

The molecules below were run on Rorippa indica (assay: Post-emergence test, weed control effect). Details: Dose 3000 g/ha, after 3 weeks.
Format: in vivo
Outline: as §1
For `O=S(=O)(Oc1cc(C(F)(F)F)nnc1-c1ccc(F)cc1)c1ccc(F)cc1` [Compound 1-134], the “weed control effect, Rorippa indica (activity level)” value was 10.
With `CCc1cccc(-c2nnc(C(F)(F)F)cc2OS(=O)(=O)c2nccs2)c1` [Compound 1-145] the “weed control effect, Rorippa indica (activity level)” value was 10.

Same assay, conditions: dose 1000 g/ha, after 3 weeks
`Cc1ccc(-c2nnc(C(F)(F)F)cc2O)cc1F` [Compound 56] was tested, and the “weed control effect (activity level), Rorippa indica” value was 10.
With `COc1ccc(-c2nnc(C(F)(F)F)cc2O)cc1` [Compound 93] the “weed control effect (activity level), Rorippa indica” value was 10.
`Cc1ccc(Cl)c(-c2nnc(C(F)(F)F)cc2O)c1F` [Compound 82] was tested, and the “weed control effect (activity level), Rorippa indica” value was 10.
For `Oc1cc(C(F)(F)F)nnc1-c1c(F)ccc(F)c1F` [Compound 54], the “weed control effect (activity level), Rorippa indica” value was 10.
With `Oc1cc(C(F)(F)F)nnc1-c1ccc(Cl)c(Cl)c1` [Compound 38] the “weed control effect (activity level), Rorippa indica” value was 10.
With `Oc1cc(C(F)(F)F)nnc1-c1c(F)cccc1F` [Compound 36] the “weed control effect (activity level), Rorippa indica” value was 10.
For `O=Cc1ccc(-c2nnc(C(F)(F)F)cc2O)c(F)c1` [Compound 64], the “weed control effect (activity level), Rorippa indica” value was 10.
`CN(C)c1ccc(-c2nnc(C(F)(F)F)cc2O)cc1` [Compound 97] was tested, and the “weed control effect (activity level), Rorippa indica” value was 10.
`COc1ccc(Cl)c(-c2nnc(C(F)(F)F)cc2O)c1` [Compound 70] was tested, and the “weed control effect (activity level), Rorippa indica” value was 10.
`O=[N+]([O-])c1ccc(Cl)c(-c2nnc(C(F)(F)F)cc2O)c1` [Compound 69] was tested, and the “weed control effect (activity level), Rorippa indica” value was 10.
For `Oc1cc(C(F)(F)F)nnc1-c1cc(Cl)ccc1Cl` [Compound 37], the “weed control effect (activity level), Rorippa indica” value was 10.

Same assay, conditions: dose 2000 g/ha, after 3 weeks
For `Oc1cc(C(F)(F)F)nnc1-c1ccc2cc(Cl)ccc2c1` [Compound 371], the “weed control effect (activity level), Rorippa indica” value was 10.
With `Cc1ccc(-c2nnc(C(F)(F)F)cc2O)cc1` [Compound 4] the “weed control effect (activity level), Rorippa indica” value was 10.
With `CCc1cc(C(F)(F)F)cc(-c2nnc(C(F)(F)F)cc2O)c1C#N` [Compound 163] the “weed control effect (activity level), Rorippa indica” value was 10.
`COc1ccc(-c2nnc(C(F)(F)F)cc2O)cn1` [Compound 226] was tested, and the “weed control effect (activity level), Rorippa indica” value was 10.
`Cc1cc(-c2nnc(C(F)(F)F)cc2O)cnc1Cl` [Compound 225] was tested, and the “weed control effect (activity level), Rorippa indica” value was 10.

Each molecule was assayed on Veronica polita (assay: Post-emergence test, weed control effect). Details: Dose 3000 g/ha, after 3 weeks.
Format: in vivo
Outline: as §1
In the case of `O=S(=O)(Oc1cc(C(F)(F)F)nnc1-c1ccc(F)cc1)c1ccc(F)cc1` [Compound 1-134], the “weed control effect, Veronica polita (activity level)” value is reported as 10.
With `CCc1cccc(-c2nnc(C(F)(F)F)cc2OS(=O)(=O)c2nccs2)c1` [Compound 1-145] the “weed control effect, Veronica polita (activity level)” value was 10.

Same assay, conditions: dose 1000 g/ha, after 3 weeks
`Cc1ccc(-c2nnc(C(F)(F)F)cc2O)cc1F` [Compound 56] was tested, and the “weed control effect (activity level), Veronica polita” value was 10.
In the case of `COc1ccc(-c2nnc(C(F)(F)F)cc2O)cc1` [Compound 93], the “weed control effect (activity level), Veronica polita” value is reported as 10.
`Cc1ccc(Cl)c(-c2nnc(C(F)(F)F)cc2O)c1F` [Compound 82] was tested, and the “weed control effect (activity level), Veronica polita” value was 10.
For `Oc1cc(C(F)(F)F)nnc1-c1c(F)ccc(F)c1F` [Compound 54], the “weed control effect (activity level), Veronica polita” value was 10.
With `Oc1cc(C(F)(F)F)nnc1-c1ccc(Cl)c(Cl)c1` [Compound 38] the “weed control effect (activity level), Veronica polita” value was 10.
With `Oc1cc(C(F)(F)F)nnc1-c1c(F)cccc1F` [Compound 36] the “weed control effect (activity level), Veronica polita” value was 10.
For `O=Cc1ccc(-c2nnc(C(F)(F)F)cc2O)c(F)c1` [Compound 64], the “weed control effect (activity level), Veronica polita” value was 10.
For `CN(C)c1ccc(-c2nnc(C(F)(F)F)cc2O)cc1` [Compound 97], the “weed control effect (activity level), Veronica polita” value was 10.
In the case of `COc1ccc(Cl)c(-c2nnc(C(F)(F)F)cc2O)c1` [Compound 70], the “weed control effect (activity level), Veronica polita” value is reported as 10.
`O=[N+]([O-])c1ccc(Cl)c(-c2nnc(C(F)(F)F)cc2O)c1` [Compound 69] was tested, and the “weed control effect (activity level), Veronica polita” value was 10.
In the case of `Oc1cc(C(F)(F)F)nnc1-c1cc(Cl)ccc1Cl` [Compound 37], the “weed control effect (activity level), Veronica polita” value is reported as 10.

Same assay, conditions: dose 2000 g/ha, after 3 weeks
With `Oc1cc(C(F)(F)F)nnc1-c1ccc2cc(Cl)ccc2c1` [Compound 371] the “weed control effect (activity level), Veronica polita” value was 10.
For `Cc1ccc(-c2nnc(C(F)(F)F)cc2O)cc1` [Compound 4], the “weed control effect (activity level), Veronica polita” value was 10.
With `CCc1cc(C(F)(F)F)cc(-c2nnc(C(F)(F)F)cc2O)c1C#N` [Compound 163] the “weed control effect (activity level), Veronica polita” value was 10.
For `COc1ccc(-c2nnc(C(F)(F)F)cc2O)cn1` [Compound 226], the “weed control effect (activity level), Veronica polita” value was 10.
`Cc1cc(-c2nnc(C(F)(F)F)cc2O)cnc1Cl` [Compound 225] was tested, and the “weed control effect (activity level), Veronica polita” value was 10.

The molecules below were run on Amaranthus retroflexus (assay: Post-emergence test, weed control effect). Details: Dose 3000 g/ha, after 3 weeks.
Format: in vivo
Outline: as §1
`O=S(=O)(Oc1cc(C(F)(F)F)nnc1-c1ccc(F)cc1)c1ccc(F)cc1` [Compound 1-134] was tested, and the “weed control effect, Amaranthus retroflexus (activity level)” value was 10.
`CCc1cccc(-c2nnc(C(F)(F)F)cc2OS(=O)(=O)c2nccs2)c1` [Compound 1-145] was tested, and the “weed control effect, Amaranthus retroflexus (activity level)” value was 10.

Same assay, conditions: dose 1000 g/ha, after 3 weeks
For `Cc1ccc(-c2nnc(C(F)(F)F)cc2O)cc1F` [Compound 56], the “weed control effect (activity level), Amaranthus retroflexus” value was 10.
In the case of `COc1ccc(-c2nnc(C(F)(F)F)cc2O)cc1` [Compound 93], the “weed control effect (activity level), Amaranthus retroflexus” value is reported as 10.
With `Cc1ccc(Cl)c(-c2nnc(C(F)(F)F)cc2O)c1F` [Compound 82] the “weed control effect (activity level), Amaranthus retroflexus” value was 10.
In the case of `Oc1cc(C(F)(F)F)nnc1-c1c(F)ccc(F)c1F` [Compound 54], the “weed control effect (activity level), Amaranthus retroflexus” value is reported as 10.
`Oc1cc(C(F)(F)F)nnc1-c1ccc(Cl)c(Cl)c1` [Compound 38] was tested, and the “weed control effect (activity level), Amaranthus retroflexus” value was 10.
For `Oc1cc(C(F)(F)F)nnc1-c1c(F)cccc1F` [Compound 36], the “weed control effect (activity level), Amaranthus retroflexus” value was 10.
`O=Cc1ccc(-c2nnc(C(F)(F)F)cc2O)c(F)c1` [Compound 64] was tested, and the “weed control effect (activity level), Amaranthus retroflexus” value was 10.
In the case of `CN(C)c1ccc(-c2nnc(C(F)(F)F)cc2O)cc1` [Compound 97], the “weed control effect (activity level), Amaranthus retroflexus” value is reported as 10.
With `COc1ccc(Cl)c(-c2nnc(C(F)(F)F)cc2O)c1` [Compound 70] the “weed control effect (activity level), Amaranthus retroflexus” value was 10.
With `O=[N+]([O-])c1ccc(Cl)c(-c2nnc(C(F)(F)F)cc2O)c1` [Compound 69] the “weed control effect (activity level), Amaranthus retroflexus” value was 10.
In the case of `Oc1cc(C(F)(F)F)nnc1-c1cc(Cl)ccc1Cl` [Compound 37], the “weed control effect (activity level), Amaranthus retroflexus” value is reported as 10.

Same assay, conditions: dose 2000 g/ha, after 3 weeks
With `Oc1cc(C(F)(F)F)nnc1-c1ccc2cc(Cl)ccc2c1` [Compound 371] the “weed control effect (activity level), Amaranthus retroflexus” value was 10.
With `Cc1ccc(-c2nnc(C(F)(F)F)cc2O)cc1` [Compound 4] the “weed control effect (activity level), Amaranthus retroflexus” value was 10.
In the case of `CCc1cc(C(F)(F)F)cc(-c2nnc(C(F)(F)F)cc2O)c1C#N` [Compound 163], the “weed control effect (activity level), Amaranthus retroflexus” value is reported as 10.
With `COc1ccc(-c2nnc(C(F)(F)F)cc2O)cn1` [Compound 226] the “weed control effect (activity level), Amaranthus retroflexus” value was 10.
For `Cc1cc(-c2nnc(C(F)(F)F)cc2O)cnc1Cl` [Compound 225], the “weed control effect (activity level), Amaranthus retroflexus” value was 10.
